In brackets after ≈: the same amount, converted by molar mass. Where two headings read alike, the source gives them in different places. Bridge positions count the residues as written; N and C are the ends. Ends that are not written are not given here.
Experiments:
Type in all cases: cell-based
[1] = tested on: V. parahaemolyticus; assay: Checkerboard test for synergy of LEAP-2 and ampicillin; conditions: Vibrio parahaemolyticus; for MIC used in combination: ampicillin and LEAP-2 used in combination
Procedure: (§1) 50 μL was added to each well, and uniformly mixed. […] 100 μL of bacterial solution was added to each well.

[2] = tested on: V. harveyi; assay: as above; conditions: Vibrio harveyi; for MIC used in combination: ampicillin and LEAP-2 used in combination
Procedure: as §1

[3] = tested on: Vibrio harveyi; assay: microbe, parasite or virus in culture
Procedure: (§2) The antibacterial activity of LEAP-2 from Erythroculter ilishaeformis (having the amino acid sequence as shown in SEQ ID NO: 1) against fish pathogens was tested by a two-fold dilution method. […] Aeromonas sobria, Aeromonas hydrophila, Vibrio harveyi, Vibrio parahaemolyticus, Vibrio anguillarum, Vibrio vulnificus, Vibrio splendidus and Vibrio cholerae were cultured in a nutrient broth medium to the logarithmic phase, and then diluted with fresh nutrient broth medium to 10^5 CFU/mL. Then, 50 μL of diluted bacterial solution was added to each well of the 96-well plate containing the prepared two-fold dilution of LEAP-2 from Erythroculter ilishaeformis. After culturing at 37° C. for 18 hours, the minimal inhibitory concentration (MIC) was measured.

[4] = tested on: Vibrio parahaemolyticus; assay: microbe, parasite or virus in culture
Procedure: as §2

[5] = tested on: Vibrio splendidus; assay: microbe, parasite or virus in culture
Procedure: as §2

[6] = tested on: Vibrio vulnificus; assay: microbe, parasite or virus in culture
Procedure: as §2

[7] = tested on: Vibrio anguillarum; assay: microbe, parasite or virus in culture
Procedure: as §2

[8] = tested on: Aeromonas hydrophila; assay: microbe, parasite or virus in culture
Procedure: as §2

[9] = tested on: Aeromonas sobria; assay: microbe, parasite or virus in culture
Procedure: as §2

[10] = tested on: Aeromonas hydrophila (penicillin-resistant strain); assay: Kinetic analysis of antibacterial action (CFU counts over time); conditions: for Number of bacteria co-cultured with sample: LEAP-2 5×MIC 93.75 μg/mL
Procedure: Aeromonas hydrophila (penicillin-resistant strain) was cultured to the logarithmic phase and diluted with fresh nutrient broth medium to 10^5 CFU/mL. […] At each time point, 50 μL of bacterial solution was taken and diluted 1000 times with nutrient broth medium. Then 50 μL of the dilution was spread on a nutrient broth agarose plate. After culturing at 37° C. for 12 hours, the CFU was calculated.

[11] = tested on: Vibrio cholerae; assay: MIC by two-fold dilution method
Procedure: as §2

CC1(C)S[C@@H]2[C@H](NC(=O)[C@H](N)c3ccccc3)C(=O)N2[C@H]1C(=O)O [Ampicillin]
MIC ([1]; read-out: MIC used alone): 18.8 µg/mL
FIC ([1]; MIC in combination/MIC alone): 0.25
MIC used in combination [1]: 4.69 µg/mL
MIC ([2]; read-out: MIC used alone): 37.5 µg/mL
MIC used in combination [2]: 4.69 µg/mL
MIC ([3]; Vibrio harveyi, 37° C., 18 hours, average of three experiments, read-out: MIC): 37.5 µg/mL (≈ 107 µM)
MIC ([4]; Vibrio parahaemolyticus, 37° C., 18 hours, average of three experiments, read-out: MIC): 18.8 µg/mL (≈ 53.7 µM)
MIC ([5]; Vibrio splendidus, 37° C., 18 hours, average of three experiments): >200 µg/mL
MIC ([5]; Vibrio splendidus, 37° C., 18 hours, average of three experiments, read-out: MIC): > 200 µg/mL
MIC ([6]; Vibrio vulnificus, 37° C., 18 hours, average of three experiments): >200 µg/mL
MIC ([6]; Vibrio vulnificus, 37° C., 18 hours, average of three experiments, read-out: MIC): > 200 µg/mL
MIC ([7]; Vibrio anguillarum, 37° C., 18 hours, average of three experiments): >200 µg/mL
MIC ([7]; Vibrio anguillarum, 37° C., 18 hours, average of three experiments, read-out: MIC): > 200 µg/mL
MIC ([8]; Aeromonas hydrophila, 37° C., 18 hours, average of three experiments): >200 µg/mL
MIC ([8]; Aeromonas hydrophila, 37° C., 18 hours, average of three experiments, read-out: MIC): > 200 µg/mL
MIC ([9]; Aeromonas sobria, 37° C., 18 hours, average of three experiments): >200 µg/mL
MIC ([9]; Aeromonas sobria, 37° C., 18 hours, average of three experiments, read-out: MIC): > 200 µg/mL
Number of bacteria co-cultured with sample ([10]; 0 min, ampicillin 1 mg/mL): 67 ± 7.5 ×10^3, CFUs/mL
Number of bacteria co-cultured with sample ([10]; 10 min, ampicillin 1 mg/mL): 69 ± 8.1 ×10^3, CFUs/mL
Number of bacteria co-cultured with sample ([10]; 20 min, ampicillin 1 mg/mL): 70 ± 7.2 ×10^3, CFUs/mL
Number of bacteria co-cultured with sample ([10]; 30 min, ampicillin 1 mg/mL): 72 ± 6.9 ×10^3, CFUs/mL
Number of bacteria co-cultured with sample ([10]; 45 min, ampicillin 1 mg/mL): 85 ± 6.9 ×10^3, CFUs/mL
Number of bacteria co-cultured with sample ([10]; 90 min, ampicillin 1 mg/mL): 197 ± 12.6 ×10^3, CFUs/mL
Number of bacteria co-cultured with sample ([10]; 120 min, ampicillin 1 mg/mL): 378 ± 41.5 ×10^3, CFUs/mL
Number of bacteria co-cultured with sample ([10]; 180 min, ampicillin 1 mg/mL): 961 ± 87.3 ×10^3, CFUs/mL
CFU of Aeromonas hydrophila after 180 minutes of incubation ([10]; ampicillin 1 mg/mL, 2862.0 μM, 180 minutes): 9.6×10^5 CFUs/mL
CFU of Aeromonas hydrophila at start ([10]; ampicillin 1 mg/mL, 2862.0 μM, before incubation): 6.7×10^4 CFUs/mL
MIC ([11]; 37° C., 18 hours, average of three experiments): >200 µg/mL
MIC ([11]; 18 h): > 200 µg/mL

MTPLWRIMLLFKPHALCQNNYACSTGLCRYGHCSALQTILS (disulfide 17-28, 23-33) [LEAP-2]
MIC used in combination [1]: 18.75 µg/mL
MIC used in combination [2]: 18.75 µg/mL
MIC ([3]; 18 h): 75 µg/mL
MIC (molar, in brackets) ([3]; Vibrio harveyi, converted from μg/mL): (16.1 μM)
MIC ([4]; 18 h): 75 µg/mL
MIC (molar, in brackets) ([4]; Vibrio parahaemolyticus, converted from μg/mL): (16.1 μM)
MIC ([5]; 18 h): 150 µg/mL
MIC (molar, in brackets) ([5]; Vibrio splendidus, converted from μg/mL): (32.2 μM)
MIC ([6]; 18 h): 37.5 µg/mL
MIC (molar, in brackets) ([6]; Vibrio vulnificus, converted from μg/mL): (8.1 μM)
MIC ([7]; 18 h): 150 µg/mL
MIC (molar, in brackets) ([7]; Vibrio anguillarum, converted from μg/mL): (32.2 μM)
MIC ([8]; 18 h): 18.75 µg/mL
MIC (molar, in brackets) ([8]; Aeromonas hydrophila, converted from μg/mL): (4.0 μM)
MIC ([9]; 18 h): 75 µg/mL
MIC (molar, in brackets) ([9]; Aeromonas sobria, converted from μg/mL): (16.1 μM)
Number of bacteria co-cultured with sample ([10]; 0 min, ampicillin 1 mg/mL): 65 ± 5.3 ×10^3, CFUs/mL
time to kill all bacteria ([10]; 5×MIC, i.e., 20.2 μM): ≤ 60 min
Number of bacteria co-cultured with sample ([10]; 10 min, ampicillin 1 mg/mL): 59 ± 7.4 ×10^3, CFUs/mL
Number of bacteria co-cultured with sample ([10]; 20 min, ampicillin 1 mg/mL): 40 ± 8.4 ×10^3, CFUs/mL
Number of bacteria co-cultured with sample ([10]; 30 min, ampicillin 1 mg/mL): 28 ± 5.9 ×10^3, CFUs/mL
Number of bacteria co-cultured with sample ([10]; 45 min, ampicillin 1 mg/mL): 11 ± 3.5 ×10^3, CFUs/mL
Number of bacteria co-cultured with sample ([10]; 60 min, ampicillin 1 mg/mL): 0 ×10^3, CFUs/mL
Number of bacteria co-cultured with sample ([10]; 90 min, ampicillin 1 mg/mL): 0 ×10^3, CFUs/mL
Number of bacteria co-cultured with sample ([10]; 120 min, ampicillin 1 mg/mL): 0 ×10^3, CFUs/mL
Number of bacteria co-cultured with sample ([10]; 180 min, ampicillin 1 mg/mL): 0 ×10^3, CFUs/mL
MIC (molar, in brackets) ([11]; converted from μg/mL): (8.1 μM)
